Measured values as given in paper PMC10776687 (Nature Communications, 2024).

Legend:
Format in all cases: cell-based
[1] = target: T1, human serotonin transporter (SERT) (Homo sapiens, UniProt P31645); test: [3H]5HT uptake inhibition in HEK293 cells; whole-cell patch clamp (partial substrate, kon/koff)
T1 construct: gene SLC6A4; human WT SERT, N-terminal eYFP fusion, stably expressed in HEK293 cells

[2] = target: T1, human serotonin transporter (SERT); test: [3H]5HT uptake kinetics (Km/Vmax) in HEK293 cells at the compound's IC50, n = […]
[3] = target: T1, human serotonin transporter (SERT); test: [3H]5HT uptake inhibition in HEK293 cells; whole-cell patch clamp (almost pure inhibitor)
[4] = target: T1, human serotonin transporter (SERT); test: [3H]5HT uptake inhibition in HEK293 cells; whole-cell patch clamp (partial substrate, kon/koff); efflux

T1 sequence (P31645 whole entry, the tested form may be a part): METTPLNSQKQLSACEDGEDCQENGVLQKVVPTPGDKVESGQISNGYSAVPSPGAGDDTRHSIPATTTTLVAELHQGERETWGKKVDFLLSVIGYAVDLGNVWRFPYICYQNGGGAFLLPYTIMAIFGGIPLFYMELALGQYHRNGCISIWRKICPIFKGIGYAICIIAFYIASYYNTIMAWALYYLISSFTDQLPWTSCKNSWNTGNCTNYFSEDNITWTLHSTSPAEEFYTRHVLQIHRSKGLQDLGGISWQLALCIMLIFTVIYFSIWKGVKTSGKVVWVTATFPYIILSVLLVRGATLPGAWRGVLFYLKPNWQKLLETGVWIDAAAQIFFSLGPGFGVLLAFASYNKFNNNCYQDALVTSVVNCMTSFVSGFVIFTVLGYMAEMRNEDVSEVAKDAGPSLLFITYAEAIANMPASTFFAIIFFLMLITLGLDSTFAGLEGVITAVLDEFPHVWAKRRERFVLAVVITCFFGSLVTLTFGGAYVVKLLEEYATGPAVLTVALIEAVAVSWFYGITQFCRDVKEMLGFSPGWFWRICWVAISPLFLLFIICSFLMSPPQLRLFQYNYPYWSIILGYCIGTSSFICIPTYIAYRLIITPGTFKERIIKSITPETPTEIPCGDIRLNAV

For NCCCCc1c[nH]c2ccc(O)cc12 [B-5HT, butyl (B)-5HT], the IC50 [1] was 0.27 µM.
COC(=O)[C@H]1[C@@H](OC(=O)c2ccccc2)C[C@@H]2CC[C@H]1N2C [COC, cocaine] showed an IC50 [2] of 4 µM.
CC[C@H]1C[C@@H]2C[C@H]3c4[nH]c5ccc(OC)cc5c4CCN(C2)[C@@H]13 [IBO, ibogaine] showed an IC50 [2] of 24 µM.
NCc1c[nH]c2ccc(O)cc12 [M-5HT] showed an IC50 [3] of 79.3 µM.
With NCCCc1c[nH]c2ccc(O)cc12 [P-5HT, propyl (P)-5HT] the IC50 [4] was 0.59 µM.
